Tests used:
Assay in all cases: Test B pre-/postemergence plant response
Type in all cases: in vivo
[1] = system: pigweed (Amaranthus retroflexus)
Procedure, shortened: (§1)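 Visually scored on a 0 to 100 scale after 13 to 15 days in greenhouse versus controls. Treatments were preemergence on seeded loam/sand soil and postemergence on 1- to 4-leaf plants.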

[2] = system: large crabgrass (Digitaria sanguinalis)
Procedure, shortened: as §1

[3] = system: wheat (Triticum aestivum)
Procedure, shortened: as §1

[4] = system: velvetleaf (Abutilon theophrasti)
Procedure, shortened: as §1

[5] = system: lambsquarters (Chenopodium album)
Procedure, shortened: as §1

[6] = system: yellow nutsedge (Cyperus esculentus)
Procedure, shortened: as §1

[7] = system: ragweed (common ragweed, Ambrosia elatior)
Procedure, shortened: as §1

[8] = system: Italian ryegrass (Lolium multiflorum)
Procedure, shortened: as §1

[9] = system: goosegrass (Eleusine indica)
Procedure, shortened: as §1

[10] = system: woolly cupgrass (Eriochloa villosa)
Procedure, shortened: as §1

[11] = system: Surinam grass (Brachiaria decumbens)
Procedure, shortened: as §1

[12] = system: green foxtail (Setaria viridis)
Procedure, shortened: as §1

[13] = system: downy bromegrass (Bromus tectorum)
Procedure, shortened: as §1

[14] = Postemergence, 31 g ai/ha, 0 to 100 scale (0 no effect, 100 complete control)
[15] = Postemergence, 62 g ai/ha, scale 0 to 100 (0 no effect, 100 complete control)
[16] = Postemergence, 250 g ai/ha, scale 0 to 100 (0 no effect, 100 complete control), 13 to 15 days
[17] = Preemergence, 31 g ai/ha, scale 0 to 100 (0 no effect, 100 complete control)
[18] = Preemergence, 62 g ai/ha, scale 0 to 100 (0 no effect, 100 complete control)
[19] = Preemergence, 125 g ai/ha, scale 0 to 100, 0 no effect, 100 complete control
[20] = Preemergence, 250 g ai/ha, 0 to 100 scale
[21] = Postemergence, 125 g ai/ha, scale 0 to 100 (0 no effect, 100 complete control)

## CCc1ccc(-n2c(-c3ccccc3)ncc(C(=O)C3=C(O)CCCC3=O)c2=O)cc1 [Compound 219]
[1]; [14]
  Plant response rating, Pigweed: 100
[1]; [15]
  Plant response rating, Pigweed: 100
[1]; [16]
  Plant response rating, Pigweed: 100
[1]; [17]
  Plant response rating, Pigweed: 100
[1]; [18]
  Plant response rating, Pigweed: 100
[1]; [19]
  Plant response rating, Pigweed: 100
[1]; [20]
  Pigweed plant response rating: 100
[2]; [14]
  Plant response rating, Crabgrass, Large: 90
[2]; [15]
  Plant response rating, Crabgrass, Large: 95
[2]; [21]
  Plant response rating, Crabgrass, Large: 95
[2]; [16]
  Plant response rating, Crabgrass, Large: 98
[2]; [17]
  Plant response rating, Crabgrass, Large: 10
[2]; [18]
  Plant response rating, Crabgrass, Large: 98
[2]; [19]
  Plant response rating, Crabgrass, Large: 100
[2]; [20]
  Crabgrass, Large plant response rating: 100
[3]; [14]
  Plant response rating, Wheat: 40
[3]; [15]
  Plant response rating, Wheat: 50
[3]; [16]
  Plant response rating, Wheat: 50
[3]; [17]
  Plant response rating, Wheat: 0
[3]; [18]
  Plant response rating, Wheat: 0
[3]; [19]
  Plant response rating, Wheat: 0
[3]; [20]
  Wheat plant response rating: 0
[4]; [14]
  Plant response rating, Velvetleaf: 85
[4]; [15]
  Plant response rating, Velvetleaf: 90
[4]; [16]
  Plant response rating, Velvetleaf: 98
[4]; [17]
  Plant response rating, Velvetleaf: 0
[4]; [18]
  Plant response rating, Velvetleaf: 75
[4]; [19]
  Plant response rating, Velvetleaf: 90
[4]; [20]
  Velvetleaf plant response rating: 95
[5]; [14]
  Plant response rating, Lambsquarters: 100
[5]; [15]
  Plant response rating, Lambsquarters: 100
[5]; [21]
  Plant response rating, Lambsquarters: 100
[5]; [16]
  Plant response rating, Lambsquarters: 100
[5]; [17]
  Plant response rating, Lambsquarters: 100
[5]; [18]
  Plant response rating, Lambsquarters: 100
[5]; [19]
  Plant response rating, Lambsquarters: 100
[5]; [20]
  Lambsquarters plant response rating: 100
[6]; [14]
  Plant response rating, Nutsedge, Yellow: 10
[6]; [15]
  Plant response rating, Nutsedge, Yellow: 55
[6]; [21]
  Plant response rating, Nutsedge, Yellow: 70
[6]; [16]
  Plant response rating, Nutsedge, Yellow: 85
[6]; [17]
  Plant response rating, Nutsedge, Yellow: 0
[6]; [18]
  Plant response rating, Nutsedge, Yellow: 45
[6]; [19]
  Plant response rating, Nutsedge, Yellow: 85
[6]; [20]
  Nutsedge, Yellow plant response rating: 90
[7]; [14]
  Plant response rating, Ragweed: 80
[7]; [15]
  Plant response rating, Ragweed: 98
[7]; [16]
  Plant response rating, Ragweed: 100
[7]; [17]
  Plant response rating, Ragweed: 45
[7]; [18]
  Plant response rating, Ragweed: 75
[7]; [19]
  Plant response rating, Ragweed: 85
[7]; [20]
  Ragweed plant response rating: 98
[8]; [14]
  Plant response rating, Ryegrass, Italian: 20
[8]; [15]
  Plant response rating, Ryegrass, Italian: 25
[8]; [16]
  Plant response rating, Ryegrass, Italian: 40
[8]; [17]
  Plant response rating, Ryegrass, Italian: 0
[8]; [18]
  Plant response rating, Ryegrass, Italian: 0
[8]; [19]
  Plant response rating, Ryegrass, Italian: 5
[8]; [20]
  Ryegrass, Italian plant response rating: 10
[9]; [14]
  Plant response rating, Goosegrass: 90
[9]; [15]
  Plant response rating, Goosegrass: 95
[9]; [21]
  Plant response rating, Goosegrass: 95
[9]; [16]
  Plant response rating, Goosegrass: 95
[9]; [17]
  Plant response rating, Goosegrass: 98
[9]; [18]
  Plant response rating, Goosegrass: 100
[9]; [19]
  Plant response rating, Goosegrass: 100
[9]; [20]
  Goosegrass plant response rating: 100
[10]; [14]
  Plant response rating, Cupgrass, Woolly: 85
[10]; [15]
  Plant response rating, Cupgrass, Woolly: 85
[10]; [21]
  Plant response rating, Cupgrass, Woolly: 95
[10]; [16]
  Plant response rating, Cupgrass, Woolly: 98
[10]; [17]
  Plant response rating, Cupgrass, Woolly: 0
[10]; [18]
  Plant response rating, Cupgrass, Woolly: 10
[10]; [19]
  Plant response rating, Cupgrass, Woolly: 20
[10]; [20]
  Cupgrass, Woolly plant response rating: 80
[11]; [14]
  Plant response rating, Surinam Grass: 10
[11]; [15]
  Plant response rating, Surinam Grass: 25
[11]; [16]
  Plant response rating, Surinam Grass: 65
[11]; [17]
  Plant response rating, Surinam Grass: 10
[11]; [18]
  Plant response rating, Surinam Grass: 10
[11]; [19]
  Plant response rating, Surinam Grass: 45
[11]; [20]
  Surinam Grass plant response rating: 100
[12]; [14]
  Plant response rating, Foxtail, Green: 70
[12]; [15]
  Plant response rating, Foxtail, Green: 80
[12]; [21]
  Plant response rating, Foxtail, Green: 90
[12]; [16]
  Plant response rating, Foxtail, Green: 90
[12]; [17]
  Plant response rating, Foxtail, Green: 20
[12]; [18]
  Plant response rating, Foxtail, Green: 70
[12]; [19]
  Plant response rating, Foxtail, Green: 90
[12]; [20]
  Foxtail, Green plant response rating: 100
[13]; [14]
  Plant response rating, Bromegrass, Downy: 45
[13]; [15]
  Plant response rating, Bromegrass, Downy: 50
[13]; [21]
  Plant response rating, Bromegrass, Downy: 80
[13]; [16]
  Plant response rating, Bromegrass, Downy: 80
[13]; [17]
  Plant response rating, Bromegrass, Downy: 0
[13]; [18]
  Plant response rating, Bromegrass, Downy: 0
[13]; [19]
  Plant response rating, Bromegrass, Downy: 10
[13]; [20]
  Bromegrass, Downy plant response rating: 20

Source: patent US8952024B2, “Herbicidal pyrimidone derivatives” (E I du Pont de Nemours and Company, priority 2009, dated 2015)
